Source: the NIST ThermoML archive (doi:10.1021/je020131a)
± gives the expanded uncertainty stated by the source.

Assay: xn = mol fraction of the nth substance listed
Settings: 101.3 kPa, Liquid, Falling or rolling sphere viscometry

CCOC(=O)OCC [diethyl carbonate] + CCCCCCC
Settings	viscosity [mPa·s]
293.15 K, x1 = 0.049	0.41 ± 0.02
293.15 K, x1 = 0.0983	0.413 ± 0.02
293.15 K, x1 = 0.1973	0.427 ± 0.02
293.15 K, x1 = 0.297	0.449 ± 0.02
293.15 K, x1 = 0.3989	0.477 ± 0.02
293.15 K, x1 = 0.4952	0.508 ± 0.02
293.15 K, x1 = 0.601	0.549 ± 0.02
293.15 K, x1 = 0.7014	0.594 ± 0.021
293.15 K, x1 = 0.8012	0.647 ± 0.021
293.15 K, x1 = 0.8985	0.707 ± 0.021
293.15 K, x1 = 0.9482	0.744 ± 0.021
293.15 K, x1 = 1	0.795 ± 0.021
298.15 K, x1 = 0.0509	0.39 ± 0.02
298.15 K, x1 = 0.0977	0.394 ± 0.02
298.15 K, x1 = 0.1973	0.41 ± 0.02
298.15 K, x1 = 0.3052	0.43 ± 0.02
298.15 K, x1 = 0.3949	0.453 ± 0.02
298.15 K, x1 = 0.5028	0.486 ± 0.02
298.15 K, x1 = 0.5924	0.516 ± 0.02
298.15 K, x1 = 0.7096	0.565 ± 0.02
298.15 K, x1 = 0.8054	0.612 ± 0.021
298.15 K, x1 = 0.9028	0.673 ± 0.021
298.15 K, x1 = 0.9495	0.709 ± 0.021
298.15 K, x1 = 1	0.749 ± 0.021
303.15 K, x1 = 0.0506	0.386 ± 0.02
303.15 K, x1 = 0.1001	0.389 ± 0.02
303.15 K, x1 = 0.1991	0.399 ± 0.02
303.15 K, x1 = 0.301	0.416 ± 0.02
303.15 K, x1 = 0.4058	0.438 ± 0.02
303.15 K, x1 = 0.5006	0.464 ± 0.02
303.15 K, x1 = 0.6133	0.501 ± 0.02
303.15 K, x1 = 0.7037	0.539 ± 0.02
303.15 K, x1 = 0.8029	0.584 ± 0.02
303.15 K, x1 = 0.8988	0.637 ± 0.021
303.15 K, x1 = 0.946	0.667 ± 0.021
303.15 K, x1 = 1	0.699 ± 0.021
313.15 K, x1 = 0.0493	0.337 ± 0.02
313.15 K, x1 = 0.0986	0.344 ± 0.02
313.15 K, x1 = 0.1975	0.362 ± 0.02
313.15 K, x1 = 0.2962	0.381 ± 0.02
313.15 K, x1 = 0.3992	0.403 ± 0.02
313.15 K, x1 = 0.4943	0.426 ± 0.02
313.15 K, x1 = 0.5992	0.456 ± 0.02
313.15 K, x1 = 0.699	0.49 ± 0.02
313.15 K, x1 = 0.8009	0.528 ± 0.02
313.15 K, x1 = 0.8984	0.573 ± 0.02
313.15 K, x1 = 0.9508	0.599 ± 0.021
313.15 K, x1 = 1	0.623 ± 0.021

CCOC(=O)OCC [diethyl carbonate] + CCCCCCCC
Settings	viscosity [mPa·s]
293.15 K, x1 = 0.0504	0.535 ± 0.021
293.15 K, x1 = 0.099	0.528 ± 0.021
293.15 K, x1 = 0.1947	0.529 ± 0.021
293.15 K, x1 = 0.2939	0.535 ± 0.021
293.15 K, x1 = 0.3911	0.55 ± 0.021
293.15 K, x1 = 0.4965	0.574 ± 0.021
293.15 K, x1 = 0.6012	0.604 ± 0.021
293.15 K, x1 = 0.6971	0.641 ± 0.021
293.15 K, x1 = 0.7996	0.684 ± 0.021
293.15 K, x1 = 0.8871	0.727 ± 0.021
293.15 K, x1 = 0.9502	0.763 ± 0.021
293.15 K, x1 = 1	0.795 ± 0.021
298.15 K, x1 = 0.0568	0.514 ± 0.021
298.15 K, x1 = 0.1069	0.51 ± 0.02
298.15 K, x1 = 0.1985	0.511 ± 0.02
298.15 K, x1 = 0.2979	0.515 ± 0.02
298.15 K, x1 = 0.3968	0.528 ± 0.02
298.15 K, x1 = 0.5035	0.551 ± 0.021
298.15 K, x1 = 0.605	0.578 ± 0.021
298.15 K, x1 = 0.7054	0.614 ± 0.021
298.15 K, x1 = 0.8042	0.653 ± 0.021
298.15 K, x1 = 0.9035	0.698 ± 0.021
298.15 K, x1 = 0.9549	0.728 ± 0.021
298.15 K, x1 = 1	0.749 ± 0.021
303.15 K, x1 = 0.0504	0.485 ± 0.02
303.15 K, x1 = 0.1002	0.485 ± 0.02
303.15 K, x1 = 0.2035	0.486 ± 0.02
303.15 K, x1 = 0.2953	0.494 ± 0.02
303.15 K, x1 = 0.3942	0.507 ± 0.02
303.15 K, x1 = 0.5035	0.525 ± 0.02
303.15 K, x1 = 0.6019	0.55 ± 0.02
303.15 K, x1 = 0.7055	0.58 ± 0.021
303.15 K, x1 = 0.8011	0.613 ± 0.021
303.15 K, x1 = 0.8999	0.654 ± 0.021
303.15 K, x1 = 0.9498	0.677 ± 0.021
303.15 K, x1 = 1	0.699 ± 0.021
313.15 K, x1 = 0.0495	0.436 ± 0.02
313.15 K, x1 = 0.0984	0.44 ± 0.02
313.15 K, x1 = 0.1957	0.448 ± 0.02
313.15 K, x1 = 0.2957	0.459 ± 0.02
313.15 K, x1 = 0.3958	0.472 ± 0.02
313.15 K, x1 = 0.4982	0.488 ± 0.02
313.15 K, x1 = 0.6036	0.508 ± 0.02
313.15 K, x1 = 0.6992	0.529 ± 0.02
313.15 K, x1 = 0.7994	0.554 ± 0.02
313.15 K, x1 = 0.8992	0.586 ± 0.021
313.15 K, x1 = 0.9502	0.608 ± 0.021
313.15 K, x1 = 1	0.623 ± 0.021

COC(=O)OC [dimethyl carbonate] + C1CCCCC1
Settings	viscosity [mPa·s]
293.15 K, x1 = 0.0495	0.886 ± 0.021
293.15 K, x1 = 0.0987	0.814 ± 0.021
293.15 K, x1 = 0.2078	0.709 ± 0.021
293.15 K, x1 = 0.2961	0.66 ± 0.021
293.15 K, x1 = 0.3974	0.626 ± 0.021
293.15 K, x1 = 0.5014	0.608 ± 0.021
293.15 K, x1 = 0.6002	0.6 ± 0.021
293.15 K, x1 = 0.7028	0.593 ± 0.021
293.15 K, x1 = 0.7994	0.59 ± 0.021
293.15 K, x1 = 0.9017	0.597 ± 0.021
293.15 K, x1 = 0.9513	0.609 ± 0.021
293.15 K, x1 = 1	0.626 ± 0.021
298.15 K, x1 = 0.0378	0.833 ± 0.021
298.15 K, x1 = 0.0808	0.776 ± 0.021
298.15 K, x1 = 0.1764	0.681 ± 0.021
298.15 K, x1 = 0.2896	0.619 ± 0.021
298.15 K, x1 = 0.388	0.587 ± 0.021
298.15 K, x1 = 0.4938	0.567 ± 0.021
298.15 K, x1 = 0.5908	0.557 ± 0.021
298.15 K, x1 = 0.6864	0.553 ± 0.021
298.15 K, x1 = 0.7918	0.555 ± 0.021
298.15 K, x1 = 0.8976	0.561 ± 0.021
298.15 K, x1 = 0.9503	0.572 ± 0.021
298.15 K, x1 = 1	0.585 ± 0.021
303.15 K, x1 = 0.0391	0.758 ± 0.021
303.15 K, x1 = 0.0931	0.703 ± 0.021
303.15 K, x1 = 0.1875	0.632 ± 0.021
303.15 K, x1 = 0.2908	0.581 ± 0.021
303.15 K, x1 = 0.3897	0.545 ± 0.02
303.15 K, x1 = 0.4962	0.522 ± 0.02
303.15 K, x1 = 0.5958	0.508 ± 0.02
303.15 K, x1 = 0.6909	0.504 ± 0.02
303.15 K, x1 = 0.7975	0.507 ± 0.02
303.15 K, x1 = 0.8912	0.522 ± 0.021
303.15 K, x1 = 0.9441	0.528 ± 0.021
303.15 K, x1 = 1	0.536 ± 0.021
313.15 K, x1 = 0.101	0.605 ± 0.021
313.15 K, x1 = 0.1482	0.574 ± 0.02
313.15 K, x1 = 0.2563	0.524 ± 0.02
313.15 K, x1 = 0.3646	0.495 ± 0.02
313.15 K, x1 = 0.4661	0.477 ± 0.02
313.15 K, x1 = 0.572	0.468 ± 0.02
313.15 K, x1 = 0.6633	0.465 ± 0.02
313.15 K, x1 = 0.7699	0.47 ± 0.02
313.15 K, x1 = 0.8688	0.479 ± 0.02
313.15 K, x1 = 0.9757	0.491 ± 0.02
313.15 K, x1 = 0.9935	0.493 ± 0.02
313.15 K, x1 = 1	0.494 ± 0.02
